Data on 1 substance can be found in paper PMC9972480, “Synthesis of Quinoline and Dihydroquinoline Embelin Derivatives as Cardioprotective Agents” (Journal of Natural Products, 2023).

Series [1] relates to MCF-7 human breast tumor cells. Kind of series: Effect on chemotherapeutic activity of DOX, MTT. It is filed as cell-based. Particulars: MCF-7 cells, compound 20 μM + DOX 1 μM, 24 h. On the procedure:
Next, cytotoxicity of the selected compounds was also tested in MCF-7 breast cancer cells to disconfirm that protective effects might antagonize the antitumor effects of doxorubicin.
Figure 4 Effects of derivatives 4i, 6a, 6d, 6e, 6k, and 6m on the chemotherapeutic activity of DOX in MCF-7 human breast tumor cells. Cells were co-treated with selected compounds at 20 μM and DOX (1 μM) for 24 h. Cell viability was measured by MTT assay. Results are reported as mean of cell viability ± SD (n = 3). ****p < 0.0001 vs DOX-treated cells.
(§1) Cell viability was assessed by conducting an MTT [3-(4,5-dimethylthiazol-2-yl)-2,5-diphenyltetrazolium bromide dye] assay. Briefly, J 774A.1, H9c2, and MCF7 cells were seeded in 96-well plates for 24 h. Then, cells were treated with DOX in the absence or presence of compounds. MTT (Sigma) reagent was added to the medium for 1 h at 37 °C. Then, the formazan was dissolved in dimethyl sulfoxide (DMSO, 100 μL). Absorbance was measured at 540 nm with a microplate reader (BMG Labtech).

In a further series the test system is H9c2 cardiomyocytes. In words: MTT cell viability assay (cytotoxicity) in H9c2 cardiomyocytes. It is filed as cell-based, rat. On the procedure:
(§2) The potential cytotoxicity of embelin (1) together with derivatives (4a–4m, 5a–5d, 6a–6m) was tested in cardiomyocytes and macrophages in order to ensure that compounds lack toxicity also in immune cells. Cell viability was determined by the MTT assay.[58] Four dihydroquinoline derivatives (4b, 4f, 4i, and 4m) and six quinoline compounds (6a, 6d, 6e, 6i, 6k, and 6m) maintained higher viable cell rates in both types of cells. IC50 values of these derivatives were higher than 40 μM and were selected for further analysis.
(§3) J774A.1 murine macrophage cells, H9c2 embryonic rat heart-derived cells, and MCF-7 breast cancer cells were purchased from American Type Cell Culture (ATCC, Manassas, VA, USA). Cells were cultured in Dulbecco’s modified Eagle medium with 10% fetal bovine serum and 1% penicillin/streptomycin (Lonza) and were maintained at 37 °C in a humidified incubator containing 5% CO2.
as §1
(In general: Formazan colour is commonly taken as a measure of viable cells.)

A further series has as its system J774 macrophages. Kind of series: MTT cell viability assay (cytotoxicity) in J774 macrophages. Type of series: cell-based, murine. The method, then: as §2, §3, §1
For another series, the system named is ROS in H9c2 cells. In words: Intracellular ROS levels, DCFH-DA assay. The settings on record: compound 20 μM + DOX 1 μM, 24 h, vs DOX-treated cells. Type of series: cell-based, rat. The method, then: Oxidative stress is produced by an imbalance between radical oxygen species (ROS) formation and endogenous antioxidant activation in reaction to cell injury, leading to myocardial toxicity. Accordingly, DOX-induced ROS production in the H9c2 cells was quantified with the DCFH-DA fluorogenic dye. […] No effects on ROS production were observed when compounds were incubated alone with cells. […] The inhibitory effects of embelin derivatives were similar to those induced by N-acetyl-cysteine (NAC), a well-known antioxidant.
Figure 5 Derivatives 4i, 6a, 6d, 6k, and 6m reduced ROS levels produced by DOX in H9c2 cells. Levels of ROS in H9c2 cells were measured fluorometrically after treatment with DOX (1 μM) alone or co-treatment with N-acetyl cysteine (NAC, 1 mM) or selected derivatives (20 μM) for 24 h, using the 2′,7′-dichlorfluorescein-diacetate (DCFH-DA) assay. Values are expressed as mean ± SD with respect to DOX-treated cells (n = 3). ****p < 0.0001 vs DOX-treated cells.
Intracellular ROS levels in H9c2 cells were evaluated by monitoring the oxidation of 2′,7′-dichlorfluorescein-diacetate (DCFH-DA) (Sigma) to fluorescent dichlorofluorescein. Cells were treated with DOX (1 μM) in the absence or presence of compounds or NAC as ROS inhibitor (1 mM) (Sigma). Then, cells were incubated with 10 μM DCFH-DA at 37 °C in the dark for 30 min. ROS level was fluorimetrically evaluated at 485/550 nm during 24 h.

Marks after values point to notes of the source that are not given here.

Take “2-Hydroxy-7-methoxy-9-(4-nitrophenyl)-3-undecylacridine-1,4-dione [Compound 6k]”: in series [1], the “Effect on antitumor (chemotherapeutic) activity of DOX” value is recorded as “without reducing DOX’s chemotherapeutic effect”. In addition, in the series with H9c2 cardiomyocytes, the “Cell viability (%) H9c2 cardiomyocytes 10 μM” value stood at 99.2 ± 0.8%, the “Cell viability (%) H9c2 cardiomyocytes 20 μM” value is 94.4 ± 6.3% and the IC50 was > 40 µM. Further, in the series with J774 macrophages, the “Cell viability (%) J774 macrophages 10 μM” value is listed as 81.9 ± 4.6 ^e %, the “Cell viability (%) J774 macrophages 20 μM” value is recorded as 76.3 ± 5.3 ^e % and the half-inhibitory concentration (IC50) is > 40 µM. Besides, in the series with ROS in H9c2 cells, the “ROS production on co-treatment with DOX” value was “significantly inhibited ROS production”.

What is called IC50 is the concentration at which inhibition is half-maximal. Low values mean higher potency, high ones lower potency.
